Measurements reported in patent US20230242993A1, “METHOD FOR SCREENING MARKERS FOR PREDICTING PROGNOSIS OF RENAL CELL CARCINOMA USING TRANSCRIPTOMIC ANALYSIS” (Gwangju Institute of Science and Technology, priority 2021, published 2023).

Legend:
[1] = tested on: RENCA RCC cells co-cultured with RAW264.7 macrophages; assay: Transwell invasion analysis of RENCA RCC cells co-cultured with RAW264.7 macrophages; format: cell-based, mouse; conditions: compound treatment, FIGS. 11, 12, 16, 17
Method: RENCA mouse renal epithelial adenocarcinoma cells and RAW264.7 mouse macrophages were purchased from the Korean Cell Line Bank (Seoul, Korea). RENCA and RAW264.7 cells were maintained in Dulbecco's Modified Eagle Medium (DMEM) medium (Gibco, Thermo Fisher Scientific, Waltham, Mass., USA) supplemented with 10% FBS and 1% penicillin/streptomycin.
Cancer cell invasion analysis was performed in a 24-well transwell plate (Corning Costar, New York, N.Y., USA). A transwell having a pore size of 8 μm was coated with Type I collagen (3 μg/60 μL/well). A total of 4×10^4 bone marrow-derived macrophage (BMDM) cells were seeded in the lower chamber and differentiated into macrophages by using cancer CM. A total of 1×10^4 cancer cells were seeded into the upper transwell. After 24 or 48 hours, cancer cells that invaded into the lower chamber through the porous membrane were fixed with 3.7% formaldehyde and stained with 0.2% crystal violet. Images of the stained cells were obtained by using an optical microscope (CKX41, Olympus, Tokyo, Japan) and analyzed by using the ImageJ software program (NIH, Bethesda, Md., RRID:SCR_003070). To evaluate the effect of DUSP22 or MAPK14 knockdown, 1×10^5 RAW264.7 cells were seeded in the lower chamber and transfected with siRNA.

[2] = tested on: RCC cells co-transplanted with macrophages; assay: Zebrafish cancer xenograft model of RCC cell dissemination (early stage of metastasis); format: in vivo; conditions: macrophages treated with compound before co-transplantation with RCC cells into zebrafish embryos; vs DMSO-treated macrophages; FIGS. 14, 15
Method: Evaluation of in vivo mouse RCC cell dissemination (early stage of metastasis) was performed by using a validated zebrafish model.
Embryos of 48 hours post-fertilization were prepared for cell xenotransplantation and either 39 or 44 embryos were used for each treatment group. After the RCC cells were stained with 2 μg/mL DiI (Invitrogen), the villus of the embryos was removed, and then the embryos were anesthetized with 0.0016% tricaine. An injector (Picospritzer ? , Parker Hannifin, Cleveland, Ohio, USA) was used to inject 200 RCC cells into the center of egg yolk or a mixture of the RCC cells and DMSO-treated macrophages or of the RCC cells and DUSP inhibitor-treated macrophages (1:1 ratio) was injected to the center of egg yolk. The xenotransplanted embryos were transferred to a 96-well plate of 200 μL of E3 medium. The number of embryos, representing the dissemination of cancer cells from the injection site, was counted by using a fluorescence microscope (Leica DM2500 Microscope).

Q: For `O=C(O)c1ccc(/C=C2\SC(=S)N(c3cccc(C(F)(F)F)c3)C2=O)cc1` [CFTRinh-172], which “RCC invasion induced by the co-culture with macrophages” value [1] is on record?
A: inhibited

Q: Which “RCC invasion induced by the co-culture with macrophages” value [1] does the source give for `O=C(O)c1ccc(N2C(=O)/C(=C/c3ccccc3)SC2=S)cc1` [BML-260] here?
A: inhibited

Q: And the “dissemination (early stage of metastasis) in vivo” value [2]?
A: significantly inhibited
